{"source": "patent US20260325481A1", "about": "“THERAPY SELECTION AND TREATMENT OF NEURODEGENERATIVE DISORDERS” (Anavex Life Sciences Corp., priority 2022, published 2026)", "key": {"[1]": {"tested_on": "patients with Parkinson's Disease with Dementia (PDD)", "assay": "ANAVEX 2-73-PDD-001 Phase 2 study (randomized, double blind, placebo-controlled) in Parkinson's Disease with Dementia", "format": "in vivo, human", "procedure": "In order to assess the safety, tolerability and efficacy of ANAVEX® 2-73 (blarcamesine) oral capsules in treating cognitive impairment in patients with Parkinson's Disease with Dementia (PDD), a phase 2 study, coded “ANAVEX® 2-73-PDD-001 study” (FIG. 1), was conducted. The study was multi-center, randomized, double blind, placebo-controlled, parallel group with 3-arm. The study included a 2-week Screening/Baseline Observation Period and a 14-week Treatment Period (including a 2 week Titration Period), and a 2-week Safety Follow-Up Period. A total of 132 patients were enrolled in the study and were randomly assigned to three testing arms (FIG. 1). In ANAVEX2-73 High Dose arm, 44 patients were given oral capsules of ANAVEX2-73 once daily in an escalating dose of 10 mg, 20 mg, 30 mg and 50 mg. In ANAVEX2-73 Mid Dose arm, 44 patients were given oral capsules of ANAVEX2-73 once daily in an escalating dose of 10 mg, 20 mg, and 30 mg. In placebo group, 44 patients were given placebo capsules. Outcome measures included Cognitive Drug Research (CDR) Computerized Assessment System on Continuity of Attention; Change from Baseline to End of Treatment in Continuity of Attention as measured by Cognitive Drug Research (CDR) Computerized Assessment System Continuity of Attention; Number of participants with treatment-related adverse events as assessed by CTCAE v4.0 [Time Frame: 14 weeks]; Assessment of the safety and tolerability of ANAVEX2-73 compared to placebo; MDS-UPDRS Part III Total Score (Motor Scores); Change from baseline to End of Treatment as measured by MDS-UPDRS Part III Total Score (Motor Scores); SDS-CL-25 [Time Frame: 14 weeks]; Incidence of sleep disorders symptoms (SDS-CL-25); and DNA/RNA Sequencing. Since MDS-UPDRS is indicative of the motor activity for Parkinson Disease (PD), the trial can also identify the effects of ANAVEX® 2-73 on PD patients.\nThe trial enrolled 132 adults, ages 50-85, with PDD, and was successfully concluded in September 2020. Participants, recruited at multiple sites in Spain and Australia, were randomly assigned to one of two doses groups (with an escalating ANAVEX 2-73 dose up to 30 or 50 mg oral capsules) or to a placebo, once daily for 14 weeks (see FIG. 1 for details). The trial's main goals were to assess the therapy's safety and changes in patients' cognitive function, measured using the cognitive drug research computerized assessment system—a test that looks at multiple cognitive skills, such as choice reaction time (choosing between similar objects), vigilance, and episodic memory (remembering new personal experiences or shared information). Secondary goals included changes in patients' motor abilities—assessed with the Movement Disorders Society Unified Parkinson's Disease Rating Scale (MDS-UPDRS) Part III—and sleep quality. […] This sleep disorder is associated with greater cognitive impairment and a higher risk of dementia. […] After 14 weeks, the MDS-UPDRS total score dropped by 10.98 points (indicating an easing in disease severity) in the high-dose group and rose by 3.53 points in the placebo group. This represented an adjusted mean improvement of 14.51 points—surpassing the established, clinically meaningful 7.1 point-cut-off—and a relative improvement of 18.9% over 14 weeks. These findings highlight ANAVEX 2-73's ability to not only slow, but also reverse, symptoms that progress in Parkinson's disease, potentially fulfilling an urgent unmet medical need, Anavex stated in its release. […] After completing the PDD-001 trial, patients had the option of being treated with ANAVEX 2-73 for nearly one year in its extension study, called ANAVEX 2-73-PDD-EP-001 (NCT04575259).\nRandomized, placebo-controlled clinical trial in 132 patients with Parkinson's disease with dementia (PDD) included prespecified biomarkers of response as well as Whole Exome Sequencing DNA data and full RNA exome expression data collection. […]"}, "SIGMAR1": {"tested_on": "SIGMAR1", "assay": "SIGMAR1 levels in PDD-001 patients", "format": "in vivo, human", "details": "PDD-001 study", "procedure": "The trial enrolled 132 adults, ages 50-85, with PDD, and was successfully concluded in September 2020. Participants, recruited at multiple sites in Spain and Australia, were randomly assigned to one of two doses groups (with an escalating ANAVEX 2-73 dose up to 30 or 50 mg oral capsules) or to a placebo, once daily for 14 weeks (see FIG. 1 for details). The trial's main goals were to assess the therapy's safety and changes in patients' cognitive function, measured using the cognitive drug research computerized assessment system—a test that looks at multiple cognitive skills, such as choice reaction time (choosing between similar objects), vigilance, and episodic memory (remembering new personal experiences or shared information). Secondary goals included changes in patients' motor abilities—assessed with the Movement Disorders Society Unified Parkinson's Disease Rating Scale (MDS-UPDRS) Part III—and sleep quality. […] This sleep disorder is associated with greater cognitive impairment and a higher risk of dementia. […] After 14 weeks, the MDS-UPDRS total score dropped by 10.98 points (indicating an easing in disease severity) in the high-dose group and rose by 3.53 points in the placebo group. This represented an adjusted mean improvement of 14.51 points—surpassing the established, clinically meaningful 7.1 point-cut-off—and a relative improvement of 18.9% over 14 weeks. […]"}, "[2]": {"tested_on": "Sigma-1 receptor (SIGMAR1)", "details": "cited from earlier work"}}}
{"smiles": "CN(C)CC1CCOC1(c1ccccc1)c1ccccc1.Cl", "note": "(centres unmarked) [ANAVEX2-73, tetrahydro-N,N-dimethyl-2,2-diphenyl-3-furanmethanamine hydrochloride]", "values": [{"measurement": "Dementia assessment, Quality of Episodic Memory", "setting": "[1]; 14-week trial, oral", "result": "dose-dependent, statistically significant improvement"}, {"measurement": "REM sleep behavior disorder", "setting": "[1]; 14 weeks, previously reported results, confirmed", "result": "lessened REM sleep behavior disorder"}, {"measurement": "Cognitive skills", "setting": "[1]; CDR computerized assessment system, 14 weeks, previously reported results, confirmed", "result": "significantly improved several cognitive skills"}, {"measurement": "MDS-UPDRS Part II response", "setting": "[1]; MS4A4A Wild Type rs6591561 cohort (excluding rs6591561 homozygous mutation carriers)", "result": "strongest response"}, {"measurement": "Response depending on patients' MS4A4A (rs6591561) carrier status", "setting": "[1]; PDD-001 study", "result": "Different ANAVEX® 2-73 response"}, {"measurement": "Motor and non-motor Parkinson's symptoms (MDS-UPDRS total score)", "setting": "[1]; high dose (50 mg) once daily oral, 14 weeks", "result": "statistically significant and clinically meaningful reductions"}, {"measurement": "Parkinson's assessment, MDS-UPDRS Total score", "setting": "[1]; high oral dose once daily, 14-week trial", "result": "significant improvement"}, {"measurement": "Safety", "setting": "[1]; oral capsules once daily up to 30 or 50 mg, 14 weeks, previously reported results", "result": "generally safe"}, {"measurement": "SIGMAR1 levels", "setting": "SIGMAR1", "result": "significant increase"}, {"measurement": "Association of rise in SIGMAR1 levels with clinical response", "setting": "SIGMAR1; attention measures, MDS-UPDRS total and Part III", "result": "significantly associated with improvements in attention measures, and reductions in both MDS-UPDRS total and MDS-UPDRS Part III (motor scores)"}, {"measurement": "Sigma-1 receptor (SIGMAR1) activity", "setting": "[2]", "result": "agonist"}]}
